Measured values from publication PMC4434089 (Biotechnology, Biotechnological Equipment, 2014).
Like-named read-outs stand apart in the source and are kept apart here. Marks after values point to notes of the source that are not given here.

Key:
Aβ [1] = settings: SPR, cited from earlier work
Text: This was further supported by a recent SPR-based Aβ study that determined a ka of 0.01 complexes per second for Aβ association following first-order kinetics, whilst the kd wa ...

Aβ [2] = settings: cited from earlier work
Text: According to a model developed by Petkova et al.,[81] the 12-21 and 30-40 regions of the Aβ peptide form the β-she ...

amylin = assay: NTA of amylin aggregation, alone or with amylin derivatives; assay type: biochemical, human; settings: for implied effect on fibrillogenesis of amylin: NTA compared with previously published reports; for Concentration of aggregates 100–150 nm, 10 min / Concentration of aggregates 200–300 nm, 10 min / Concentration of aggregates 150–200 nm, 10 min / Concentration of aggregates 100–150 nm, 24 h / Concentration of aggregates 200–300 nm, 24 h / Concentration of aggregates 150–200 nm, 24 h: 37 °C, amylin 50 μmol L^−1 alone (A) or with 250 μmol L^−1 derivative, pH 7.4, duplicate; for Concentration of aggregates 100–150 nm, 10 min: 10 mmol L^−1 sodium phosphate, 50 mmol L^−1 NaCl; for Concentration of aggregates 100–150 nm, 10 min / Concentration of aggregates 150–200 nm, 10 min: p < 0.05 less than A: n1, n5, m5; for Concentration of aggregates 200–300 nm, 10 min: p < 0.05 less than A: n1, n3, n5, m1, m2, m3, m4, m5; for Concentration of aggregates 100–150 nm, 24 h: p < 0.05 less than A: n1, n2, m5, significantly more: m2; for Concentration of aggregates 200–300 nm, 24 h: p < 0.05 less than A: n1, n2, n3, n4, n5, m5; for Concentration of aggregates 150–200 nm, 24 h: p < 0.05 less than A: n1, n2, n5, m5; for number of 200–300 nm aggregates at 24 h vs amylin only: amylin:derivative 50:250 μmol L^−1, p < 0.05
Procedure: NTA measurements were performed with a NanoSight LM20 instrument (NanoSight, United Kingdom) equipped with a 640 nm laser and a temperature controlled sample chamber. […] The sample temperature was maintained at 37 °C for the entire duration of the experiment. These experimental conditions were similar to that used for a previously reported cytotoxicity experiment,[73] thus allowing correlation of results obtained from the two techniques. […] Once again, samples were maintained at 37 °C and 60 s video footage were recorded every 10 min for the first hour and then at 24 h. All videos were captured with the single shutter and gain modes. Analysis was performed using NanoSight NTA version 2.2 software with a viscosity setting of 0.70.

full length amylin = tested on: full length amylin; parameters: method as in 2 sources, one per row (each row's own in cited_ref): ref 58 = [58]; PMID 14565847; doi:10.1042/BJ20030852; Jaikaran E Nilsson MR Clark A Biochem J. 2004 377 709 716 14565847 10.1042/BJ20030852 PMC1223903 ||| ref 68, 93 = [68]; PMID 12054816; doi:10.1016/S0022-2836(02)00164-X; Scrocchi LA Chen Y Waschuk S Wang F Cheung S Darabie AA McLaurin J Fraser PE J Mol Biol. 2002 318 697 706 12054816 10.1016/S0022-2836(02)00164-X || [93]; PMID 12648568; doi:10.1016/s1047-8477(02)00630-5; Scrocchi LA Ha K Chen Y Wu L Wang F Fraser PE J Struct Biol. 2003 141 218 227 http://dx.doi.org/10.1016/s1047-8477(02)00630-5 12648568 10.1016/s1047-8477(02)00630-5; settings: cited from earlier work
[3] = tested on: amylin-mediated cytotoxicity; parameters: method as in PMID 20093026; settings: cited from earlier work
[4] = tested on: sensor chip-bound biotinylated amylin; parameters: method as in PMID 14565847; settings: insulin over sensor chip-bound biotinylated amylin; cited from earlier work

| Substance | Aβ association rate (Aβ [1]; conditions similar to present study) [complexes per second] | Aβ dissociation kd (Aβ [1]; global fit, first-order kinetic model) [s⁻¹] | Aβ dissociation kd (Aβ [1]; printed spread ± 1.3 × 10^−4 s^−1) [s⁻¹] | Aβ dissociation time (Aβ [1]; ref 39 (by order of citation)) [min] | Aβ dissociation time (Aβ [1]; ref 80 (by order of citation)) [min] | aggregation rate compared with 1–42 form of Aβ (Aβ [2]) | implied effect on fibrillogenesis of amylin (amylin) | Concentration of aggregates 100–150 nm, 10 min (amylin; NTA, 10 min) | Concentration of aggregates 200–300 nm, 10 min (amylin; NTA, 10 min) | Concentration of aggregates 150–200 nm, 10 min (amylin; NTA, 10 min) | Concentration of aggregates 100–150 nm, 24 h (amylin; NTA) | Concentration of aggregates 200–300 nm, 24 h (amylin; NTA) | Concentration of aggregates 150–200 nm, 24 h (amylin; NTA) | number of 200–300 nm aggregates at 24 h vs amylin only (amylin; NTA) | effect on amylin aggregation over 24 h (amylin; NTA, all size ranges, amylin:derivative 50:250 μmol L^−1, vs amylin only) | fibril formation of full length amylin in presence of derivative (full length amylin) | reduction of amylin-mediated cytotoxicity [3] | concentrations of 100–150, […]–200 and 200–300 nm aggregates at 10 min vs amylin only (amylin; NTA, 10 min, amylin:derivative 50:250 μmol L^−1, unpaired t-test) | effect on fibril formation (full length amylin) | response change during binding to biotinylated amylin [4] [RUs] |
| --- | --- | --- | --- | --- | --- | --- | --- | --- | --- | --- | --- | --- | --- | --- | --- | --- | --- | --- | --- | --- |
| Aβ1–40: amyloid beta; SPR-derived kinetics were generated using the 1–40 form of Aβ | 0.01 | 0.00223 | 0.00092 | 7.5 | 18 | aggregate much more slowly than the 1–42 form of Aβ |  |  |  |  |  |  |  |  |  |  |  |  |  |  |
| FLVHSS [n3] |  |  |  |  |  |  | increase fibrillogenesis of amylin to an aggregate that is larger than 1000 nm | 2.0 ×10^7 aggregates/mL | 1.4* ×10^7 aggregates/mL | 1.2 ×10^7 aggregates/mL | 3.4 ×10^7 aggregates/mL | 1.9* ×10^7 aggregates/mL | 2.1 ×10^7 aggregates/mL | significantly lower than in samples containing amylin only | small amount of aggregates of all size ranges which increases only marginally over 24 h | fibril formation of full length amylin was enhanced | more than 40% |  |  |  |
| NFGAIL [n4] |  |  |  |  |  |  | increase fibrillogenesis of amylin to an aggregate that is larger than 1000 nm | 3.8 ×10^7 aggregates/mL | 5.1 ×10^7 aggregates/mL | 2.3 ×10^7 aggregates/mL | 1.7 ×10^7 aggregates/mL | 1.7* ×10^7 aggregates/mL | 1.8 ×10^7 aggregates/mL | significantly lower than in samples containing amylin only |  | fibril formation of full length amylin was enhanced | more than 40% | not significantly different |  |  |
| insulin: insulin, binding to sensor chip-bound biotinylated amylin |  |  |  |  |  |  |  |  |  |  |  |  |  |  |  |  |  |  | inhibit fibril formation | 15 |
